Laboratory results as given in patent publication US20100068160A1, “COSMETIC AND DERMATOLOGICAL FORMULATIONS INCLUDING PHENOXYALKYL ESTERS” (EVONIK GOLDSCHMIDT GMBH, priority 2008, published 2010).

Test: Dissolving power of UV photoprotective filters in phenoxyalkyl esters
Assay type: physicochemical
Conditions: percent by weight, 22° C.; for Dissolving power for Benzophenone-3: maximum dissolvable amount of UV filter Benzophenone-3 (BP-3) in the substance; for Dissolving power for BMDM: maximum dissolvable amount of UV filter Butyl Methoxydibenzoylmethane (BMDM) in the substance; for Dissolving power for Tinosorb S: maximum dissolvable amount of UV filter Tinosorb S (Bemotrizinol, BEMT) in the substance; for Dissolving power for Uvinul T 150: maximum dissolvable amount of UV filter Uvinul T 150 (Octyl Triazone, EHT) in the substance
Source text: To test the dissolving power of crystalline UV photoprotective filters in phenoxyalkyl esters, four representative UV-A and/or UV-B photoprotective filters were selected by way of representation. These were benzophenone-3 (2-hydroxy-4-methoxybenzophenone, BP-3), Butyl Methoxydibenzoylmethane (BMDM), Octyl Triazone (2,4,6-trianilino-p-(carbo-2′-ethylhexyl-1′-oxy)-1,3,5-triazines, EHT) and Bemotrizinol (bis-ethylhexyloxyphenol meth-oxyphenyl triazine, BEMT).
To determine the dissolving power for these […] UV photoprotective filters, in each case a certain amount (50 g) of one of the compounds according to the invention was initially introduced and heated to 22° C. One (1) percent by weight of a UV photoprotective filter was added and the mixture was stirred until this amount had dissolved completely and homogeneously. This operation was repeated until the maximum dissolvable amount of the UV photoprotective filter was exceeded. For complete dissolution in the case of relatively high concentrations, a prolonged stirring time of several hours was often necessary.
If the maximum concentration had been roughly determined in this way, to finely determine the concentration range around this maximum concentration the procedure was repeated using smaller initial weight amounts of the […] photoprotective filter.
The reference used was the compound Tegosoft® TN (C12-15 alkyl benzoate).

| Dissolving power for Benzophenone-3 | Dissolving power for BMDM | Dissolving power for Tinosorb S | Dissolving power for Uvinul T 150 | Compound |
| --- | --- | --- | --- | --- |
| 27% | 16% | 10% | 6% | CC(COc1ccccc1)OC(=O)C1CCCCC1 (centres unmarked) [1-Phenoxy-2-propyl cyclohexanoate, 1-phenoxy-2-propylcyclohexanecarboxylic acid ester] |
| 20% | 13% | 9% | 4% | CCCCCC(CCC)C(=O)OCCOc1ccccc1 (centres unmarked) [2-Phenoxyethyl 2-propylheptanoate] |
| 28% | 18% | 11% | 6% | CCCCCCCC(=O)OCCOc1ccccc1 [2-Phenoxyethyl caprylate, 2-phenoxyethyloctanoic acid ester] |
| 28% | 18% | 11% | 6% | CCCCCC(=O)OCCOc1ccccc1 [2-Phenoxyethyl caproate] |
| 25% | 16% | 9% | 4% | CC(C)CCCCCC(=O)OCCOc1ccccc1 [2-Phenoxyethyl isononanoate] |
| 15% | 13% | 9% | 4% | C12-15 alkyl benzoate [Tegosoft ® TN, reference compound] |
| 25% | 17% | 12% | 4% | CCCCC(CC)C(=O)OCCOc1ccccc1 (centres unmarked) [2-Phenoxyethyl 2-ethylhexanoate, 2-phenoxyethyl-2-ethylhexanoic acid ester] |
| 21% | 14% | 9% | 6% | CCCCCCCC(=O)OC(C)COc1ccccc1 (centres unmarked) [1-Phenoxy-2-propyl caprylate, 1-phenoxy-2-propyloctanoic acid ester] |
| 19% | 14% | 8% | 5% | CCCCCCC(CCCC)C(=O)OCCOc1ccccc1 (centres unmarked) [2-Phenoxyethyl 2-butyloctanoate, 2-phenoxyethyl-2-butyloctanoic acid ester] |
| 21% | 15% | 9% | 4% | CCCCC(CC)C(=O)OC(C)COc1ccccc1 (centres unmarked) [1-Phenoxy-2-propyl 2-ethylhexanoate] |
| 30% | 19% | 12% | 6% | O=C(OCCOc1ccccc1)C1CCCCC1 [2-Phenoxyethyl cyclohexanoate, 2-phenoxyethylcyclohexanecarboxylic acid ester] |
